According to patent US11419869B2, “Dosage forms and regimens for amino acid compounds” (Pliant Therapeutics, Inc., priority 2019, dated 2022):

The compounds below were run against recombinant human integrin αvβ6 (Homo sapiens (Human), UniProt P06756+P18564) (assay: Solid Phase Integrin αvβ6 Binding Assay (Examples B1, B2)). Conditions: TGFβ1 LAP ligand, values given in four ranges, read-out: αvβ6 Inhibition IC50 (nM)-range.
Method: (§1) Microplates were coated with recombinant human integrin αvβ6 (2 μg/mL) in PBS (100 μL/well 25° C., overnight). The coating solution was removed, washed with wash buffer (0.05% Tween 20; 0.5 mM MnCl2; in 1×TBS). The plate was blocked with 200 μL/well of Block Buffer (1% BSA; 5% sucrose; 0.5 mM MnCl2; in 1×TBS) at 37° C. for 2 h. Dilutions of testing compounds and recombinant TGFβ1 LAP (0.67 μg/mL) in binding buffer (0.05% BSA; 2.5% sucrose; 0.5 mM MnCl2; in 1×TBS) were added. The plate was incubated for 2 hours at 25° C., washed, and incubated for 1 hour with Biotin-Anti-hLAP. Bound antibody was detected by peroxidase-conjugated streptavidin. The IC50 values for testing compounds were calculated by four-parameter logistic regression.
The compounds tested were compound samples prepared according to procedures described in the Synthetic Examples section, with the stereochemical purity as indicated in the Examples.
as §1, with “A third series of exemplary compounds was selected for testing in the solid phase integrin αvβ6 binding assay. The compounds tested were compound samples prepared according to procedures described in the Synthetic Examples section, with the stereochemical purity as indicated in the Examples. As in Example B1, microplates were coated” for “Microplates were coated”, “calculated by a four-parameter logistic” for “calculated by four-parameter logistic”

recombinant human integrin αvβ6, sequence (P06756 31-992): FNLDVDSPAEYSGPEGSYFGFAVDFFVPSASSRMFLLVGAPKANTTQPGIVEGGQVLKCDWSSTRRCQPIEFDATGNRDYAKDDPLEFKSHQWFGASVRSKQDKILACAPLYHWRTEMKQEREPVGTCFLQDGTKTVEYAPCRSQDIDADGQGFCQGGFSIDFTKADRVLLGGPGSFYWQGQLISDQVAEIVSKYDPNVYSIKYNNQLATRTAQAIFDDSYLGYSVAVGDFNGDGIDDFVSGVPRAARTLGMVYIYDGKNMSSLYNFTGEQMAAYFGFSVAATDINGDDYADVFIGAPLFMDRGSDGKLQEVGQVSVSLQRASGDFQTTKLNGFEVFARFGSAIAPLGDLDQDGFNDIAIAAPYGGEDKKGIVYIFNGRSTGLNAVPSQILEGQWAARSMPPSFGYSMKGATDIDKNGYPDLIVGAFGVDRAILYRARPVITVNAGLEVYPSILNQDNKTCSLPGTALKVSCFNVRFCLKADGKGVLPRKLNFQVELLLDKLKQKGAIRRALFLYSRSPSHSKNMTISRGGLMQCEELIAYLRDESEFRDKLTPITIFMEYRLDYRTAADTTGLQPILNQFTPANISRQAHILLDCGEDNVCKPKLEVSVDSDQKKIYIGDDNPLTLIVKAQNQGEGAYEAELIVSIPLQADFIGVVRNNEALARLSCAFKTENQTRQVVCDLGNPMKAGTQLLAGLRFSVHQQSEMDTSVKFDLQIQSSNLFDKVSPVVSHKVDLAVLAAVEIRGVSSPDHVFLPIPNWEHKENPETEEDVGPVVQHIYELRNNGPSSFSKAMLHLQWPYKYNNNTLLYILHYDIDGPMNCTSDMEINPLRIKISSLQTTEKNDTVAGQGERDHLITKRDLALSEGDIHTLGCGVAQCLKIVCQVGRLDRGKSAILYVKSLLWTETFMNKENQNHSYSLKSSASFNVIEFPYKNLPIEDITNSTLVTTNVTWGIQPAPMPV
recombinant human integrin αvβ6, sequence (P18564 22-707): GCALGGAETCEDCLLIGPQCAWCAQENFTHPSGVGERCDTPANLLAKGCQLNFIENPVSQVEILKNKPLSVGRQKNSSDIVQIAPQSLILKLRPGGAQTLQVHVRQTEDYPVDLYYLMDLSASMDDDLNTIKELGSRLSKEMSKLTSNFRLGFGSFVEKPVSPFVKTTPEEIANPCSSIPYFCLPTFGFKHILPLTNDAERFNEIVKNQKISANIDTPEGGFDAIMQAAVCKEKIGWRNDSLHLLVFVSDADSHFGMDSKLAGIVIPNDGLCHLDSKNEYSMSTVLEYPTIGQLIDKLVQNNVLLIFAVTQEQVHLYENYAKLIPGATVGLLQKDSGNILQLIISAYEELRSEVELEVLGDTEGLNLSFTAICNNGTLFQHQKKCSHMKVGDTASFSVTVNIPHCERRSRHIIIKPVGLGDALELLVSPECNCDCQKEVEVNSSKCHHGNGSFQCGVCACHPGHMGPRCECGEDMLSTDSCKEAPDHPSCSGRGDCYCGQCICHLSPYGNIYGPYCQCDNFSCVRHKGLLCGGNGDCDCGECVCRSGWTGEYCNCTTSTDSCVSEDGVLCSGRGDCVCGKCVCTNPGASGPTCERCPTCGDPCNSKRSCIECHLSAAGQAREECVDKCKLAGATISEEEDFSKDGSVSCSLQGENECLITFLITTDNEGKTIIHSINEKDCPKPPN

`COCCN(CCCCc1ccc2c(n1)NCCC2)CC[C@H](Nc1nccc2ccccc12)C(=O)O` [Compound 34, (S)-2-(isoquinolin-1-ylamino)-4-((2-methoxyethyl) (4-(5,6,7,8-tetrahydro-1,8-naphthyridin-2-yl)butyl)amino) butanoic acid] and `COCCN(CCCCc1ccc2c(n1)NCCC2)CC[C@H](Nc1ccnc2ccccc12)C(=O)O` [Compound 36, (S)-4-((2-methoxyethyl) (4-(5,6,7,8-tetrahydro-1,8-naphthyridin-2-yl)butyl)amino)-2-(quinolin-4-ylamino) butanoic acid] cannot be ordered by IC50: over 1000 nM for the first, over 1000 nM for the second.

`O=C(O)[C@H](CCN(CCCCc1ccc2c(n1)NCCC2)CCOC(F)F)Nc1ncnc2ccccc12` [Compound 35, (S)-4-((2-(difluoromethoxy)ethyl) (4-(5,6,7,8-tetrahydro-1,8-naphthyridin-2-yl)butyl)amino)-2-(quinazolin-4-ylamino) butanoic acid] and `O=C(O)[C@H](CCN(CCCCc1ccc2c(n1)NCCC2)CCOCC(F)(F)F)Nc1ncnc2ccccc12` [Compound 39, (S)-2-(quinazolin-4-ylamino)-4-((4-(5,6,7,8-tetrahydro-1,8-naphthyridin-2-yl)butyl) (2-(2,2,2-trifluoroethoxy)ethyl)amino) butanoic acid] cannot be ordered by IC50: under 50 nM for the first, under 50 nM for the second.

`COCCN(CCCCc1ccc2c(n1)NCCC2)CC[C@H](Nc1ncnc2c(Cl)cccc12)C(=O)O` [Compound 38, (S)-2-((8-chloroquinazolin-4-yl)amino)-4-((2-methoxyethyl) (4-(5,6,7,8-tetrahydro-1,8-naphthyridin-2-yl)butyl)amino) butanoic acid] and `COc1cccc2c(N[C@@H](CCN(CCCF)CCCCc3ccc4c(n3)NCCC4)C(=O)O)ncnc12` [Compound 43, (S)-4-((3-fluoropropyl) (4-(5,6,7,8-tetrahydro-1,8-naphthyridin-2-yl)butyl)amino)-2-((8-methoxyquinazolin-4-yl)amino) butanoic acid] cannot be ordered by IC50: under 50 nM for the first, under 50 nM for the second.

`Cc1nc(N[C@@H](CCN(CCCCc2ccc3c(n2)NCCC3)CCOc2ccc(F)cc2)C(=O)O)c2ccc(F)cc2n1` [Compound 40, (S)-2-((7-fluoro-2-methylquinazolin-4-yl)amino)-4-((2-(4-fluorophenoxy)ethyl) (4-(5,6,7,8-tetrahydro-1,8-naphthyridin-2-yl)butyl)amino) butanoic acid] and `Cc1nc(N[C@@H](CCN(CCCCc2ccc3c(n2)NCCC3)CCOC2CC2(F)F)C(=O)O)c2ccc(F)cc2n1` (stereo partly drawn) [Compound 42, (2S)-4-((2-(2,2-difluorocyclopropoxy)ethyl) (4-(5,6,7,8-tetrahydro-1,8-naphthyridin-2-yl)butyl)amino)-2-((7-fluoro-2-methylquinazolin-4-yl)amino) butanoic acid] cannot be ordered by IC50: under 50 nM for the first, under 50 nM for the second.

`COc1ccc2c(N[C@@H](CCN(CCCF)CCCCc3ccc4c(n3)NCCC4)C(=O)O)ncnc2c1` [Compound 41, (S)-4-((3-fluoropropyl) (4-(5,6,7,8-tetrahydro-1,8-naphthyridin-2-yl)butyl)amino)-2-((7-methoxyquinazolin-4-yl)amino) butanoic acid] and `Cc1cc(C)n(CCN(CCCCc2ccc3c(n2)NCCC3)CC[C@H](Nc2ncnc3ccccc23)C(=O)O)n1` [Compound 45, (S)-4-((2-(3,5-dimethyl-1H-pyrazol-1-yl)ethyl) (4-(5,6,7,8-tetrahydro-1,8-naphthyridin-2-yl)butyl)amino)-2-(quinazolin-4-ylamino) butanoic acid] cannot be ordered by IC50: under 50 nM for the first, under 50 nM for the second.

Compound `COCCN(CCCCc1ccc2c(n1)NCCC2)CC[C@H](Nc1cc(-n2cccn2)ncn1)C(=O)O` [Compound 44, (S)-2-((6-(1H-pyrazol-1-yl)pyrimidin-4-yl)amino)-4-((2-methoxyethyl) (4-(5,6,7,8-tetrahydro-1,8-naphthyridin-2-yl)butyl)amino) butanoic acid] has an IC50 of under 50 nM.
